What all share (assay type): in vitro ADME
A short description of data set [1]: Rat Hepatocyte Stability Assay. As to conditions: Sprague-Dawley, cryopreserved hepatocytes. The protocol:
(§1) The metabolic stability of Compound 1 was evaluated using cryopreserved hepatocytes from mice, rats, dogs, cynomolgus monkeys, and humans.
(§2) 50 μL of 1 mM intermediate solutions for each test compound was prepared by adding 5 μL of 10 mM stock solution to 45 μL of a 1:1 mixture of water and acetonitrile. A 2 μM working stocks for each test compound were prepared in incubation media, InvitroGRO™ KHB (Bio IVT, Westbury, NY, USA), by adding 2 μL of 1 mM intermediate stock to 998 μL of incubation media.
(§3) To thaw the hepatocytes, InvitroGRO™ HT thawing medium (BioIVT, Westbury, NY, USA) was prewarmed to 37° C., and 48 mL of warmed thawing medium was transferred to a sterile 50 mL conical tube. The hepatocyte vial was removed from the liquid nitrogen Dewar, and gently thawed in a water bath at 37° C. for 1-2 minutes, then the contents of the vial were emptied into a conical tube with prewarmed InvitroGRO HT medium. 1 mL of prewarmed InvitroGRO HT medium was added to each emptied hepatocyte vial to resuspend any remaining cells, and the contents were pipetted into the hepatocyte suspension. The tube containing the hepatocyte suspension was centrifuged at 50*g for 5 minutes. The supernatant was removed carefully, and the remaining pellet was resuspended by adding 1 mL of incubation media, InvitroGRO KHB, and gently shaking until there were no clumps.
(§4) Cell viability was determined using the trypan blue method. 25 μL of hepatocyte cell suspension was added to a trypan blue (TB) solution (containing 775 μL InvitroGRO KHB and 200 μL of Trypan Blue). Cell count was taken using a hemacytometer.
(§5) For mouse hepatocytes, 200 μL of hepatocytes (0.8×10^6 cells/mL) were added to the wells of a 48 well plate (Catalog No. 92048, TPP Techno Plastic Products AG, Trasadingen, Switzerland) and pre-incubated for 30 minutes at 37° C. For rat, dog, monkey, […], 200 μL of hepatocytes (2×10^6 cells/mL) were added to the wells of a 48 well plate (Catalog No. 92048, TPP Techno Plastic Products AG, Trasadingen, Switzerland) and pre-incubated for 30 minutes at 37° C.
(§6) For all species of hepatocytes, once the pre-incubation period was complete, 200 μL of 2 μM working stock of test compound was added to the wells of the plate, and the plate was vortexed on a Vibramax™ 100 (P/N 544-21200-00, Heidolph Instruments GmbH & Co. KG, Schwabach, Germany) at 500 rpm in a 37° C. CO2 incubator (Model No. 51026280, ThermoFisher Scientific, Waltham, MA, USA). At each time point of 0, 15, 30, 60, 90, and 120 minutes, 50 μL of incubation mixture was precipitated with 200 μL of acetonitrile containing internal standard.
(§7) At the end of the experiment, the samples were centrifuged at 4000 rpm for 10 minutes. […]

For data set [2], the system named is cryopreserved hepatocytes from Sprague-Dawley rats. Description: Rat Hepatocyte Stability Assay. The protocol:
as §1, §2, §3, §4, §5, §6, §7

For data set [3], the system named is cryopreserved human hepatocytes. Description: Human Hepatocyte Stability Assay. The protocol: as §1, §2, §3, §4, §5, §6, §7
Data set [4] can be described thus: Human Hepatocyte Stability Assay. To be noted: cryopreserved hepatocytes. The protocol:
as §1, §2, §3, §4, §5, §6, §7

With `COc1cc(-c2cn(C)c(=O)c(C)c2C)cc(OC)c1CN1CC[C@H](N2CCN(c3ccc(N[C@H]4CCC(=O)NC4=O)cc3F)CC2)C(F)(F)C1` [Compound 1, (S)-3-((4-(4-((S)-1-(2,6-dimethoxy-4-(1,4,5-trimethyl-6-oxo-1,6-dihydropyridin-3-yl)benzyl)-3,3-difluoropiperidin-4-yl)piperazin-1-yl)-3-fluorophenyl)amino)-piperidine-2,6-dione], the half-life at 1 µM in data set [1] and in data set [4] was over 2 h in each case. The figures for the hepatocyte CLint at 1 µM in data set [1] (read-out: CL int cells) and in data set [4] (read-out: CL int cells) were 3.7 µL/min/1e6 cells and 4.67 µL/min/1e6 cells, respectively. Moreover, in data set [2], the “CLh int in vivo” value came to 17.76 mL/min/Kg body wt. Further, the “CLhb scaled well stirred” value in data set [2] came out at 14.2 mL/min/kg body wt; in data set [3] it was 8.4 mL/min/kg body wt. Also, in data set [4] (read-out: CL int in vivo), the CLint scaled at 1 µM was found to be 14.4 mL/min/kg.

These data come from US20240245677A1, “SELECTED COMPOUNDS FOR TARGETED DEGRADATION OF BRD9” (C4 THERAPEUTICS, INC., priority 2021, published 2024).
